Legend:
Assay type in all cases: cell-based
Fusarium culmorum = Fusarium culmorum (Root Rot) growth inhibition, microtiter plate, photometric; conditions: single compound, 48 hrs, 24° C.
Procedure: Fusarium culmorum (Root Rot):
(§1) Conidia of the fungus from cryogenic storage were directly mixed into nutrient broth (potato dextrose broth). After placing a (DMSO) solution of the test compounds into a microtiter plate (96-well format) the nutrient broth containing the fungal spores was added.

[1] = system: Glomerella lagenarium (syn. Colletotrichum lagenarium); test: Glomerella lagenarium (Anthracnose of Cucurbits) growth inhibition, microtiter plate, photometric; conditions: alone
Procedure: Glomerella lagenarium (syn. Colletotrichum lagenarium), Anthracnose of Cucurbits:
as §1

Rhizoctonia solani = Rhizoctonia solani (Foot Rot, Damping-Off) growth inhibition, microtiter plate, photometric; conditions: applied alone
Procedure: Rhizoctonia solani (Foot Rot, Damping-Off):
Mycelial fragments of the fungus from cryogenic storage were directly mixed into nutrient broth (potato dextrose broth). After placing a (DMSO) solution of the test compounds into a microtiter plate (96-well format) the nutrient broth containing the fungal spores was added.

Pythium ultimum = Pythium ultimum (Damping Off) growth inhibition, microtiter plate, photometric
Procedure: Pythium ultimum (Damping Off):
Mycelial fragments of the fungus, prepared from a fresh liquid culture, were directly mixed into nutrient broth (potato dextrose broth). After placing a (DMSO) solution of the test compounds into a microtiter plate (96-well format) the nutrient broth containing the fungal spores was added.

[2] = system: Mycosphaerella arachidis (syn. Cercospora arachidicola); test: Mycosphaerella arachidis (Brown Leaf Spot of Groundnut) growth inhibition, microtiter plate, photometric; conditions: alone
Procedure: Mycosphaerella arachidis (syn. Cercospora arachidicola), Brown Leaf Spot of Groundnut (Peanut):
as §1

Botrvtis cinerea = Botrvtis cinerea (Gray Mould) growth inhibition, microtiter plate, photometric; conditions: alone
Procedure: Botrvtis cinerea (Gray Mould):
as §1

Septoria tritici = Septoria tritici (Leaf Blotch) growth inhibition, microtiter plate, photometric; conditions: alone
Procedure: Septoria tritici (Leaf Blotch):
as §1

Measured: AVERAGE DEAD IN %

Cc1cc(C2=NOC(c3cc(Cl)cc(Cl)c3)(C(F)(F)F)C2)ccc1C(=O)NC1CS(=O)(=O)C1 (racemic) [A8]
0%: Fusarium culmorum; 2.5 PPM AI | Fusarium culmorum; 5 PPM AI | Fusarium culmorum; 10 PPM AI | Fusarium culmorum; 20 PPM AI | [1]; 0.078125 ppm AI | [1]; 0.15625 ppm AI | [1]; 0.3125 ppm AI | [1]; 0.625 ppm AI | [1]; 1.25 ppm AI | [1]; 2.5 ppm AI | [1]; 5 ppm AI | [1]; 10 ppm AI | [1]; 20 ppm AI | Rhizoctonia solani; 0.0390625 ppm AI | Rhizoctonia solani; 0.078125 ppm AI | Rhizoctonia solani; 0.15625 ppm AI | Rhizoctonia solani; 0.3125 ppm AI | Rhizoctonia solani; 0.625 ppm AI | Rhizoctonia solani; 1.25 ppm AI | Rhizoctonia solani; 2.5 ppm AI | Rhizoctonia solani; 5 ppm AI | Rhizoctonia solani; 10 ppm AI | Rhizoctonia solani; 20 ppm AI | Pythium ultimum; single compound at 0.078125 ppm AI | Pythium ultimum; single compound at 0.15625 ppm AI | Pythium ultimum; single compound at 0.3125 ppm AI | Pythium ultimum; single compound at 0.625 ppm AI | Pythium ultimum; single compound at 1.25 ppm AI | Pythium ultimum; single compound at 2.5 ppm AI | Pythium ultimum; single compound at 5 ppm AI | Pythium ultimum; single compound at 10 ppm AI | Pythium ultimum; single compound at 20 ppm AI | [2]; 0.0390625 PPM AI | [2]; 0.078125 PPM AI | [2]; 0.15625 PPM AI | [2]; 0.3125 PPM AI | [2]; 0.625 PPM AI | [2]; 1.25 PPM AI | [2]; 2.5 PPM AI | [2]; 5 PPM AI | [2]; 10 PPM AI | [2]; 20 PPM AI | Botrvtis cinerea; 0.078125 ppm AI | Botrvtis cinerea; 0.15625 ppm AI | Botrvtis cinerea; 0.3125 ppm AI | Botrvtis cinerea; 0.625 ppm AI | Botrvtis cinerea; 1.25 ppm AI | Botrvtis cinerea; 2.5 ppm AI | Botrvtis cinerea; 5 ppm AI | Botrvtis cinerea; 10 ppm AI | Botrvtis cinerea; 20 ppm AI | Septoria tritici; 0.0390625 ppm AI | Septoria tritici; 0.078125 ppm AI | Septoria tritici; 0.15625 ppm AI | Septoria tritici; 0.3125 ppm AI | Septoria tritici; 0.625 ppm AI | Septoria tritici; 1.25 ppm AI | Septoria tritici; 2.5 ppm AI | Septoria tritici; 5 ppm AI | Septoria tritici; 10 ppm AI | Septoria tritici; 20 ppm AI
